Laboratory results as given in ChEMBL document CHEMBL4002629, “Design, synthesis and biological evaluation of novel 3-substituted 4-anilino-coumarin derivatives as antitumor agents” (Bioorg Med Chem Lett, 2017).
Values belong to the molecule of their own block, whether it stands above or below them. The source made the active and inactive calls. The rule behind the calls is not given here.

Tests used:
[1] = test system: MCF7; experiment: Antiproliferative activity against human MCF7 cells after 48 hrs by MTT assay; assay type: functional, cell-based; details: MCF7, 48 h
[2] = test system: PANC-1; experiment: Antiproliferative activity against human PANC1 cells after 48 hrs by MTT assay; assay type: functional, cell-based; details: PANC-1, 48 h
[3] = test system: HCT-116; experiment: Antiproliferative activity against human HCT116 cells after 48 hrs by MTT assay; assay type: functional, cell-based; details: HCT-116, 48 h
[4] = test system: HepG2; experiment: Antiproliferative activity against human HepG2 cells after 48 hrs by MTT assay; assay type: functional, cell-based; details: HepG2, 48 h
[5] = test system: MCF7; experiment: Induction of apoptosis in human MCF7 cells assessed as cell distortion at 5 to 15 uM after 24 hrs by Hoechst 33258 staining-based inverted microscopy; assay type: functional
[6] = test system: MCF7; experiment: Induction of apoptosis in human MCF7 cells after 48 hrs by annexin V-propidium iodide staining-based flow cytometry; assay type: functional, cell-based
[7] = Selectivity index, ratio of IC50 for HUVEC to IC50 for human HepG2 cells
[8] = test system: MCF7; experiment: Induction of apoptosis in human MCF7 cells assessed as necrotic cells at 5 uM after 48 hrs by annexin V-propidium iodide staining-based flow cytometry (reference value: 0.3%); assay type: functional
[9] = Selectivity index, ratio of IC50 for HUVEC to IC50 for human HCT116 cells
[10] = test system: MCF7; experiment: Cell cycle arrest in human MCF7 cells assessed as accumulation at G0/G1 phase at 15 uM after 48 hrs by propidium iodide staining-based flow cytometric method (reference value: 55.56 +/- 0.91%); assay type: functional
[11] = test system: MCF7; experiment: Cell cycle arrest in human MCF7 cells assessed as accumulation at G0/G1 phase at 5 uM after 48 hrs by propidium iodide staining-based flow cytometric method (reference value: 55.56 +/- 0.91%); assay type: functional
[12] = test system: MCF7; experiment: Induction of apoptosis in human MCF7 cells assessed as early apoptotic cells at 15 uM after 48 hrs by annexin V-propidium iodide staining-based flow cytometry (reference value: 3.2%); assay type: functional
[13] = test system: MCF7; experiment: Cell cycle arrest in human MCF7 cells assessed as accumulation at G2/M phase at 5 uM after 48 hrs by propidium iodide staining-based flow cytometric method (reference value: 24.16 +/- 2.29%); assay type: functional
[14] = Selectivity index, ratio of IC50 for HUVEC to IC50 for human MCF7 cells
[15] = test system: MCF7; experiment: Induction of apoptosis in human MCF7 cells assessed as necrotic cells at 10 uM after 48 hrs by annexin V-propidium iodide staining-based flow cytometry (reference value: 0.3%); assay type: functional
[16] = test system: MCF7; experiment: Induction of apoptosis in human MCF7 cells assessed as early apoptotic cells at 5 uM after 48 hrs by annexin V-propidium iodide staining-based flow cytometry (reference value: 3.2%); assay type: functional
[17] = Selectivity index, ratio of IC50 for HUVEC to IC50 for human PANC1 cells
[18] = test system: MCF7; experiment: Induction of apoptosis in human MCF7 cells assessed as viable cells at 15 uM after 48 hrs by annexin V-propidium iodide staining-based flow cytometry (reference value: 96.3%); assay type: functional; details: MCF7, 48 h, read-out: Activity
[19] = test system: MCF7; experiment: Induction of apoptosis in human MCF7 cells assessed as viable cells at 5 uM after 48 hrs by annexin V-propidium iodide staining-based flow cytometry (reference value: 96.3%); assay type: functional; details: MCF7, 48 h, read-out: Activity
[20] = test system: MCF7; experiment: Induction of apoptosis in human MCF7 cells assessed as necrotic cells at 15 uM after 48 hrs by annexin V-propidium iodide staining-based flow cytometry (reference value: 0.3%); assay type: functional
[21] = test system: HUVEC; experiment: Antiproliferative activity against HUVEC after 48 hrs by MTT assay; assay type: cell-based; details: Homo sapiens
[22] = test system: MCF7; experiment: Induction of apoptosis in human MCF7 cells assessed as late apoptotic cells at 10 uM after 48 hrs by annexin V-propidium iodide staining-based flow cytometry (reference value: 0.1%); assay type: functional
[23] = test system: MCF7; experiment: Induction of apoptosis in human MCF7 cells assessed as cell rounding up at 5 to 15 uM after 24 hrs by Hoechst 33258 staining-based inverted microscopy; assay type: functional
[24] = test system: MCF7; experiment: Induction of apoptosis in human MCF7 cells assessed as early apoptotic cells at 10 uM after 48 hrs by annexin V-propidium iodide staining-based flow cytometry (reference value: 3.2%); assay type: functional
[25] = test system: MCF7; experiment: Induction of apoptosis in human MCF7 cells assessed as membrane shrinkage at 5 to 15 uM after 24 hrs by Hoechst 33258 staining-based inverted microscopy; assay type: functional, cell-based
[26] = test system: MCF7; experiment: Induction of apoptosis in human MCF7 cells assessed as late apoptotic cells at 15 uM after 48 hrs by annexin V-propidium iodide staining-based flow cytometry (reference value: 0.1%); assay type: functional
[27] = test system: MCF7; experiment: Cell cycle arrest in human MCF7 cells assessed as accumulation at G0/G1 phase at 10 uM after 48 hrs by propidium iodide staining-based flow cytometric method (reference value: 55.56 +/- 0.91%); assay type: functional
[28] = test system: MCF7; experiment: Induction of apoptosis in human MCF7 cells assessed as membrane blebbing at 5 to 15 uM after 24 hrs by Hoechst 33258 staining-based inverted microscopy; assay type: functional, cell-based
[29] = test system: MCF7; experiment: Cell cycle arrest in human MCF7 cells assessed as accumulation at G2/M phase at 10 uM after 48 hrs by propidium iodide staining-based flow cytometric method (reference value: 24.16 +/- 2.29%); assay type: functional
[30] = test system: MCF7; experiment: Induction of apoptosis in human MCF7 cells assessed as viable cells at 10 uM after 48 hrs by annexin V-propidium iodide staining-based flow cytometry (reference value: 96.3%); assay type: functional; details: MCF7, 48 h, read-out: Activity
[31] = test system: MCF7; experiment: Induction of apoptosis in human MCF7 cells assessed as late apoptotic cells at 5 uM after 48 hrs by annexin V-propidium iodide staining-based flow cytometry (reference value: 0.1%); assay type: functional
[32] = test system: MCF7; experiment: Cell cycle arrest in human MCF7 cells assessed as accumulation at G2/M phase at 15 uM after 48 hrs by propidium iodide staining-based flow cytometric method (reference value: 24.16 +/- 2.29%); assay type: functional

SMILES: COc1ccc(-c2c(Nc3ccc(C)cc3)c3ccccc3oc2=O)cc1
- IC50 [1]: 65.3 µM
- IC50 [2]: 66.1 µM
- IC50 [3]: 64.8 µM
- IC50 [4]: 59.4 µM

SMILES: COc1ccc(-c2c(Nc3ccc(F)cc3)c3ccc(O)cc3oc2=O)cc1
- IC50 [1]: 71.5 µM
- IC50 [2]: 75 µM
- IC50 [3]: 66.1 µM
- IC50 [4]: 65.6 µM

SMILES: COc1ccc(-c2c(Nc3ccc(NC(C)=O)cc3)c3ccc(OC)cc3oc2=O)cc1
- IC50 [1]: 85.8 µM
- IC50 [4]: > 100 µM

SMILES: COc1ccc(Nc2c(-c3ccc(OC)cc3)c(=O)oc3cc(O)ccc23)cc1
- IC50 [1]: > 100 µM
- IC50 [4]: 78.8 µM

SMILES: CCOc1ccc(Nc2c(-c3ccc(OC)cc3)c(=O)oc3ccccc23)cc1
- IC50 [1]: 30.7 µM
- IC50 [2]: 32.9 µM
- IC50 [3]: 29.5 µM
- IC50 [4]: 31.3 µM

SMILES: COc1ccc(-c2c(Nc3ccc(NC(C)=O)cc3)c3ccccc3oc2=O)cc1
- IC50 [1]: > 100 µM
- IC50 [4]: > 100 µM

SMILES: COc1ccc(-c2c(Nc3cc(OC)c(OC)c(OC)c3)c3ccc(O)cc3oc2=O)cc1
- IC50 [1]: 56 µM
- IC50 [2]: 63.9 µM
- IC50 [3]: 64.2 µM
- IC50 [4]: 49.6 µM

SMILES: COc1ccc(-c2c(Nc3ccc(C)cc3)c3ccc(O)cc3oc2=O)cc1
- IC50 [1]: 85.5 µM
- IC50 [4]: 88.3 µM

SMILES: COc1ccc(-c2c(Nc3cccc(C(F)(F)F)c3)c3ccccc3oc2=O)cc1
- IC50 [1]: 21.6 µM
- IC50 [2]: 49.1 µM
- IC50 [3]: 55.7 µM
- IC50 [4]: 66.4 µM

SMILES: COc1ccc2c(Nc3cc(OC)c(OC)c(OC)c3)c(C(=O)C(F)(F)F)c(=O)oc2c1
- IC50 [1]: 19.2 µM
- IC50 [2]: 24.1 µM
- IC50 [3]: 17 µM
- IC50 [4]: 26.4 µM

SMILES: COc1ccc(-c2c(Nc3cccc(C(F)(F)F)c3)c3ccc(OC)cc3oc2=O)cc1
- IC50 [1]: 36.2 µM
- IC50 [2]: 39.5 µM
- IC50 [3]: 41.2 µM
- IC50 [4]: 57.2 µM

The next lines start with results.

- IC50 [1]: 16.6 µM
- IC50 [2]: 5.16 µM
- IC50 [3]: 4.42 µM
- IC50 [4]: 5.45 µM
SMILES: COc1ccc2oc(=O)c(C(=O)C(F)(F)F)c(Nc3ccc4c(c3)OCO4)c2c1
- Activity [5]: Active
- Activity [6]: Dose-dependent effect
- Ratio IC50 [7]: 4.82
- Activity [8]: 1.1%
- Ratio IC50 [9]: 5.94
- Activity [10]: 21.93%
- Activity [11]: 45.12%
- Activity [12]: 32.1%
- Activity [13]: 26.13%
- Ratio IC50 [14]: 1.59
- Activity [15]: 1.6%
- Activity [16]: 16.3%
- Ratio IC50 [17]: 5.09
- viability at 15 µM [18]: 59.9%
- viability at 5 µM [19]: 81.3%
- Activity [20]: 3.3%
- IC50 [21]: 26.3 µM
- Activity [22]: 1.9%
- Activity [23]: Active
- Activity [24]: 20.2%
- Activity [25]: Active
- Activity [26]: 4.7%
- Activity [27]: 30.15%
- Activity [28]: Active
- Activity [29]: 41.93%
- viability at 10 µM [30]: 76.3%
- Activity [31]: 1.3%
- Activity [32]: 63.06%

- IC50 [1]: > 100 µM
- IC50 [4]: > 100 µM
SMILES: COc1ccc(-c2c(Nc3ccc4c(c3)OCO4)c3ccccc3oc2=O)cc1

- IC50 [1]: 37.4 µM
- IC50 [2]: 15.8 µM
- IC50 [3]: 12.5 µM
- IC50 [4]: 10.5 µM
SMILES: COc1ccc2c(Nc3ccc4c(c3)OCO4)c(C(=O)C(F)(F)F)c(=O)oc2c1

- IC50 [1]: 15 µM
- IC50 [2]: 23.8 µM
- IC50 [3]: 19.5 µM
- IC50 [4]: 12.3 µM
SMILES: COc1ccc2oc(=O)c(C(=O)C(F)(F)F)c(Nc3cc(OC)c(OC)c(OC)c3)c2c1

- IC50 [1]: 20.1 µM
- IC50 [2]: 5.62 µM
- IC50 [3]: 4.62 µM
- IC50 [4]: 6.71 µM
SMILES: COc1ccc2oc(=O)c(C(=O)C(F)(F)F)c(Nc3ccc(C)c(O)c3)c2c1
- Ratio IC50 [7]: 4.39
- Ratio IC50 [9]: 6.37
- Ratio IC50 [14]: 1.46
- Ratio IC50 [17]: 5.23
- IC50 [21]: 29.4 µM

- IC50 [1]: 89.5 µM
- IC50 [2]: 48.2 µM
- IC50 [3]: 41.2 µM
- IC50 [4]: 79 µM
SMILES: COc1ccc(-c2c(Nc3ccc4c(c3)OCO4)c3ccc(O)cc3oc2=O)cc1

- IC50 [1]: > 100 µM
- IC50 [4]: > 100 µM
SMILES: COc1ccc(-c2c(Nc3ccc4c(c3)OCO4)c3ccc(OC)cc3oc2=O)cc1
